Experimental data from the NIST ThermoML archive (doi:10.1021/je500079y).

Conditions: 101.33 kPa, Liquid, Vibrating tube method

CCOS(=O)(=O)[O-].CCn1cc[n+](C)c1 [1-ethyl-3-methylimidazolium ethyl sulfate]
Conditions	mass density [kg/m3]
278.15 K	1250.01
283.15 K	1246.61
288.15 K	1243.14
293.15 K	1239.68
298.15 K	1236.24
303.15 K	1232.82
308.15 K	1229.42
313.15 K	1226.03
318.15 K	1222.66
323.15 K	1219.3
328.15 K	1215.96
333.15 K	1212.63
338.15 K	1209.31
343.15 K	1206.01
